Laboratory results taken from patent US20250213700A1, “COMPOUNDS, COMPOSITIONS, AND METHODS FOR CELL-SPECIFIC PHARMACOLOGY” (Duke University, priority 2022, published 2025).

How the values were obtained:
AMPAR [1] = assay: positive allosteric modulation of the AMPAR by CMPDA reagents; format: cell-based
Source text: To complete the bidirectional ionotropic toolkit, allosteric modulators of the AMPAR were explored. For many pharmaceuticals of this class, including cyclothiazide, two drug molecules are known to bind in close proximity, one on each side of the interface between adjacent ligand-binding domains. Thus, newer pharmaceuticals of this class were focused on, which can span the two binding sites simultaneously, reasoning that it would be easier to accommodate a single tether into the binding interface. In particular, CMPDA (phenyl-1,4-bisalkylsulfonamide) was focused on, owing to its structural simplicity and availability of an experimental atomic structure. […] A synthetic scheme to resynthesize CMPDA while installing a short PEG spacer domain at a point of attachment was devised to allow tether access from the allosteric binding site to free solution. […] Altering the electrostatic properties of the spacer domain was explored. In silico docking and experimental iteration to redesign the electronegative spacer (CCOCCOCC) into a polar neutral spacer (CBNCCCNC) was used, yielding CMPDA.2alkyne, which was converted into the full-length CMPDA.2DART.2.

AMPAR [2] = assay: whole-mount retina, AMPAR-mediated evoked EPSC in retinal ganglion cells; format: cell-based, mouse; conditions: 300 nM, 15 min
Protocol: (§1) (FIG. 6A) Viral strategy (top panel). […] Experimental overview (second panel from the top to bottom panel). Top: whole retina; synaptic current is evoked (stim) and recorded (voltage-clamp of dTomato+ RGC), with ionic and pharmaceutical conditions chosen to isolate the AMPAR or GABAAR. A 10 min baseline is followed by 15 min application of 300 nM Rx^DART.2+30 nM Alexa^647.1DART.2. […] (FIG. 6B) CMPDA.2^DART.2 (left). Electropositive spacer (PDB 3RNN). […] AMPAR structural model (middle) (composite of PDB 5WEO, 3RNN, and 1FTL). Cylinder depicts cell membrane. […] YM90K.1^DART.2 (right). Structural model (PDB 1FTL). […] (FIG. 6C) diazepam.1^DART.2 (left). Structural model (PDB 6HUP). […] GABAAR (middle) structural model (composite of PDB 6HUP and 6HUK). […] Structural model (PDB 6HUK).
(§2) Preparation of Retina: Mice were intravitreal injected AAV10 HaloTag™-dTomato to eyes. After 8-12 weeks, the mice killed by cervical dislocation. Both eyes were removed and dissected under a stereo-microscope. Retinas were isolated from the eyecups and placed in oxygenated (95% O2/5% CO2) cold-Ames medium (Sigma-Aldrich), supplemented with 21 mM NaHCO3. After the vitreous body was removed, a retina was cut into 3 pieces, leaving each retina piece attached to a filter paper with 2 mm hole by retina ganglion-cell-side-down. The pieces of retina were stored in bubbled Ames solution at room temperature, then transferred to recording chamber with retina ganglion-cell-side-up for recording.
(§3) Whole-cell patch-clamp recording: The brain slices or retinas were perfused with bubbled aCSF at 29-30° C. with a 2 ml/min flow rate. Recordings were made by whole cell patch recording techniques using a Multiclamp 700B amplifier (Molecular Devices, Axon Instruments Inc., Union City, CA). The signals were filtered at 10 KHz and acquired using Digitate 1440A and pClamp 10.7 (Molecular Devices). The recording pipettes (4 MΩ-6 MΩ) were filled with internal solutions. For GABAA receptor-mediated evoked inhibitory postsynaptic currents ([…]) recording, the pipettes filled with Cesium Chloride-based internal solution (in mM) 135 CsCl, 2 MgCl2, 0.5 EGTA, 10 HEPES, 4 Mg-ATP, 0.5 Na-GTP, 10 Na2-phosphocreatine, and QX314 (lidocaine N-ethyl bromide), pH adjusted to 7.3 with CsOH (290 mosm). For AMPA-receptor mediated evoked excitatory postsynaptic currents (eEPSCs) recording, the pipette solution contained (in mM) 130 CsMeS, 1 MgCl2, 0.5 EGTA, 10 HEPES, 4 Mg-ATP, 0.5 Na-GTP, 10 Na2-phosphocreatine, and 4 QX314, pH adjusted to 7.3 with CsOH (290 mosm). For experiment of brain slices and retinas, the eIPSCs or eEPSCs were elicited by electrical stimuli at 0.067 Hz in 0.3-ms duration and 150-300-ρA (60-70% maximum responses) stimulation intensity at a holding potential of −70 mV. The stimulating electrode was placed within 60-100 μm from the recording neuron under voltage-clamp mode. GABA-receptor mediated eIPSCs were isolated in the presence of DNQX ([…] AMPAR antagonist) and AP-V ([…] antagonist) in the bath solution. For AMPA-receptor mediated eEPSCs, added picrotoxin ([…], GABAAR antagonist) and AP-V ([…]) to the bath solution.

endogenous AMPARs = assay: all-optical cultured-neuron assay of AMPAR-dependent synaptic transmission; format: cell-based, rat; conditions: DW=Rx50/HTL50; ddHTP vs +HTP cells, 15 min
Protocol: (§4) Cultured neuronal assays: Preparation of hippocampal cultures: Mixed glial and neuronal cultures were prepared from the hippocampus of postnatal day 0 to 1 Sprague-Dawley rat pups. Separate pools of dissociated cells were transfected via electroporation (LONZA, V4SP-3096) with plasmid constructs, and depending on assay directives, either plated individually or mixed with a different pool of electroporated cells after a 10 min recovery period. Cells were cultured on coverslips (Deckglaser) pre-treated with high molecular weight poly-D-lysine (Sigma, P7405; 0.05 mg/mL) in 24-well plates and maintained in NbActiv4 (BrainBits, Nb4-500) at 37 C, 5% CO2. Media was changed by half at DIV3 or 4 and then weekly thereafter; experiments were performed between DIV16 to DIV18.

endogenous GABAARs = assay: all-optical assay of GABAAR antagonism in primary neuronal culture; format: cell-based, rat
Protocol: as §4
Gabazine: Dissociated neurons were electroporated with constructs and cultured for 2 weeks. The assay was performed in the same BASE solution as described above, but with the addition of synaptic blockers CPP (NMDAR antagonist; Tocris) and NBQX (AMPAR antagonist; Abcam, ab120046) to isolate GABAR activity, and a small amount of GABA (GABAR agonist; Sigma) to ensure GABAR activity (=GABAR-BASE). […] Instead, a high dose of regular gabazine was used to completely silence any cells that may not have had realized full antagonism by the end of the assay. Imaging alignment, proof-reading and analysis were performed in a similar fashion to the AMPAR assay using MatLab.
It was next focused on blocking the GABAAR, a ubiquitous transducer of synaptic inhibition. […] The structure-activity literature of gabazine, a selective GABAAR antagonist, was explored. The core gabazine pharmacophore includes of a 3-amino, 6-phenoxy-pyridazine ring, with GABA embedded in the 2-position (2 butyric acid). Based on historical, low-potency predecessors of gabazine, a longer GABA moiety (2 pentanoic acid), and methyl substituents (e.g., 5-CH3) were explored (FIG. 2F). For each variant, the 6-phenoxy moiety was modified to make a gabazinealkyne module, which was click-conjugated to DART.2. Several variants were made, including gabazine.1^DART.2 (2 butyric acid, 5-H), gabazine.5DART.2 (2 pentanoic acid, 5-H), and gabazine.7DART.2 (2 pentanoic acid, 5-CH3). An all-optical assay of endogenous GABAARs in primary neuronal culture was then developed. […] Excitatory synapses were blocked, such that opto-stimulation with ChR2 became the only source of neural excitation.

GABAAR [3] = assay: cerebellar slice voltage-clamp, tonic GABAAR current in granule cells; format: cell-based, mouse
Source text: (§5) (FIG. 4A) Validation of gabazine.1^DART.2 in cerebellar slice. Top: voltage-clamp schematic. Bottom: tonic GABAAR in granule cells expressing ^+HTP or ^ddHTP. […] Data are mean±SEM, cells normalized to baseline. (FIG. 4B) In vivo delivery of gabazine.1^DART.2 to cerebellar granule cells. Top right: schematic of experimental approach, GCaMP6f granule-cell activity obtained in the absence of sensory stimuli. Top left: example field of view, GCaMP6f signal averaged across trials. Bottom: example calcium traces (ΔF/F) in an awake ^+HTP mouse before (baseline) and after (1 μL of 1 μM gabazine.1^DART.2) infusion. (FIG. 4C) In vivo, 1 μL of 1 μM gabazine.1^DART.2 to ^+HTP mice. Color indicates ΔF/F, each row is one cell before (left) and after (right) gabazine.1^DART.2 infusion. […] (FIG. 4D) In vivo, 1 μL of 1 μM gabazine.1^DART.2 to ^ddHTP mice. Format as in panel C. […] (FIG. 4E) Validation of gabazine.7^DART.2 in VTA slice. Top: evoked-IPSC configuration. […] Data are mean±SEM, cells normalized to baseline. […] Data are mean±SEM, normalized to baseline speed of each animal.
Next, the feasibility of using DART.2 for GABAAR antagonism in live mice was explored. […] Whether this sparsity results from low excitatory drive, or high inhibitory GABAAR tone, has been difficult to address with prior tools. For example, one may attempt to reduce inhibition onto granule cells by silencing local GABA-producing neurons [golgi cells]. However, this would disinhibit local excitatory neurons [unipolar brush cells]. Thus the approach would inadvertently elevate excitatory drive onto granule cells, concomitant with the desired goal of reducing their inhibition, confounding interpretation. […] AAV DIO ^+HTPGPI or AAV DIO ^ddHTPGPI were expressed along with GCaMPxx in xxx-Cre mice; 2p. […] Next, in vivo experiments, using two-photon imaging of granule cells were performed.

cerebellar granule cells = assay: in vivo two-photon GCaMP imaging of cerebellar granule cells; design: species or system mouse; conditions: local infusion, 1 μL of 1 μM
Source text: as §5
Next, the feasibility of using DART.2 for GABAAR antagonism in live mice was explored. […] Whether this sparsity results from low excitatory drive, or high inhibitory GABAAR tone, has been difficult to address with prior tools. […]

GABAAR [4] = assay: whole-mount retina, GABAAR-mediated evoked IPSC in retinal ganglion cells; format: cell-based, mouse; conditions: 300 nM, 15 min
Protocol: as §1, §2, §3

`C#CCOCCOCCOCCOCCOCCOCCC(CNS(=O)(=O)C(C)C)c1ccc(CCNS(=O)(=O)C(C)C)cc1` (stereo not drawn) [CMPDA.1alkyne, N-(2-{4-[23-(propane-2-sulfonamido)-4,7, 10, 13, 16, 19-hexaoxatricos-1-yn-22-yl]phenyl}ethyl)propane-2-sulfonamide] was tested, and the “positive modulation of the AMPAR” value (AMPAR [1]) was “retained its ability to positively modulate the AMPAR”.
In the case of `COc1cc(CCCCl)ccc1CCOCCNC(=O)c1ccc(CNC(=O)CCOCCOCCOCCOCCOCCOCCOCCOCCOCCOCCOCCOCCOCCOCCOCCOCCOCCOCCOCCOCCOCCOCCOCCOCCOCCOCCOCCOCCOCCOCCOCCOCCOCCOCCOCCOCCn2cc(COCCNCCCNC(=O)CC(CNS(=O)(=O)C(C)C)c3ccc(CCNS(=O)(=O)C(C)C)cc3)nn2)cc1` (stereo not drawn) [CMPDA.2DART.2], the “positive modulation of the AMPAR” value (AMPAR [1]) is reported as “restored the ability of the reagent to bind and produce positive allosterically modulation of the AMPAR”, the “AMPAR evoked EPSC integral (total charge transfer) boost, +HTP cells” value (AMPAR [2]) is reported as 3 fold and the “AMPAR evoked EPSC, ddHTP cells” value (AMPAR [2]) is reported as “No impact”. The “integrated EPSC charge transfer, +HTP RGCs” value (AMPAR [2]) was “three-fold increase” and the “AMPAR evoked EPSC, ddHTP cells” value (AMPAR [2]; listed as CMPDA.2^DART.2) was “not ^ddHTP cells”.
For `O=C(CCCn1c(=O)c(=O)[nH]c2cc([N+](=O)[O-])c(-n3ccnc3)cc21)NCCOCCOCCOCCOCCOCCOCc1cn(CCOCCOCCOCCOCCOCCOCCOCCOCCOCCOCCOCCOCCOCCOCCOCCOCCOCCOCCOCCOCCOCCOCCOCCOCCOCCOCCOCCOCCOCCOCCOCCOCCOCCOCCOCCOCCC(=O)NCCOCCOCCCCCCCl)nn1` [YM90K.1DART.1, 1-(4-(24-(7-(1H-imidazol-1-yl)-6-nitro-2,3-dioxo-3,4-dihydroquinoxalin-1 (2H)-yl)-21-oxo-2,5,8, 11, 14, 17-hexaoxa-20-azatetracosyl)-1H-1,2,3-triazol-1-yl)-N-(2-(2-((6-chlorohexyl)oxy)ethoxy)ethyl)-3,6,9, 12, 15, 18, 21, 24, 27, 30, 33, 36, 39, 42, 45, 48, 51, 54, 57, 60, 63, 66, 69, 72, 75, 78, 81, 84, 87, 90, 93, 96, 99, 102, 105, 108-hexatriacontaoxaundecahectan-111-amide], the “DW (t=15 m)” value (endogenous AMPARs) was 30.
`COc1ccc(-c2ccc(=N)n(CCCC(=O)O)n2)cc1` [gabazine, reference compound] was tested, and the “effect on +HTP vs ddHTP cells” value (endogenous GABAARs; traditional (non-DART) version) was “equally affected” and the “GABAAR current after subsequent application” value (GABAAR [3]; traditional gabazine) was “blocks all GABAAR current”.
In the case of `COc1cc(CCCCl)ccc1CCOCCNC(=O)c1ccc(CNC(=O)CCOCCOCCOCCOCCOCCOCCOCCOCCOCCOCCOCCOCCOCCOCCOCCOCCOCCOCCOCCOCCOCCOCCOCCOCCOCCOCCOCCOCCOCCOCCOCCOCCOCCOCCOCCOCCn2cc(COCCOCCOCCOCCOCCOCCOCCCCCCOc3ccc(-c4ccc(=N)n(CCCC(=O)O)n4)cc3)nn2)cc1` [gabazine.1DART.2], the “DW (t=15 m)” value (endogenous GABAARs; ddHTP vs +HTP cells, 15 min, 15 uM GABA) is reported as 500, the “tonic GABAAR current, +HTP granule cells” value (GABAAR [3]; 100 nM) is reported as “antagonizes the GABAAR in ^+HTP” and the HTL50 (half-maximal tethering concentration at 15 min) (GABAAR [3]; +HTP cells, tonic GABAAR current, read-out: HTL50 (t=15 m)) is reported as roughly 50 nM. For the same compound, the IC50 (GABAAR [3]; read-out: Rx50, ddHTP cells, tonic GABAAR current) was roughly 1000 nM, the “GCaMP signals, ddHTP mice” value (cerebellar granule cells) was “no impact on GCaMP signals” and the “granule cell activity, +HTP mice” value (cerebellar granule cells) was “pronounced increase in +HTP granule cell activity”. The “GABAAR evoked IPSC block, +HTP cells” value (GABAAR [4]) was “blocked the GABAAR-mediated IPSC”, the “GABAAR evoked IPSC, ddHTP cells” value (GABAAR [4]) was “not on ^ddHTP cells” and the “GABAAR evoked IPSC block, +HTP cells” value (GABAAR [4]; listed as gabazine.1^DART.2) was “blocked on ^+HTP cells”.
